The values that follow come from patent US4816467A, “Heteroaryl 3-oxo-propanenitrile derivatives, pharmaceutical compositions and use” (Farmitalia Carlo Erba s.r.l, priority 1987, dated 1989).

Some results are limits rather than exact numbers.

The subject of one data set is D. pneumoniae. The data set is described as follows: Activity on D. pneumoniae infection in mice. The data set is classed as in vivo. Particulars: infection 3 × LD50 i.p. On the procedure: (§1) The compound of the present invention 2-cyano-3-(1,4-dihydro-1-phenyl-[1]-benzothiopyrano[4,3-c]pyrazol-3-yl)-3- oxo-N-phenyl-propanamide (internal code FCE 24578), for instance, was tested, according to the procedure described by Cleeland R., Grunberg E. 1986, 825-876, "Antibiotics in Laboratory Medicine" Lorian V. Editor (Williams and Wilkins), in the following models of infection: L. monocytogenes; D. pneumoniae; S. flexneri and P. aeruginosa; the last one being performed in cyclophosphamide immunosuppressed mice, according to Cryz S. J., Furer E., Germanier R., 1983, Infect. Imm., 39, 1067-1071.
(§2) Activity of FCE 24578 on S. flexneri and D. pneumoniae
(§3) Infection (3 × LD50) was given i.p.
(§4) Treatments with FCE 24578 or vehicle were performed on -3, -2, -1 and 0
MST = Mean Survival Time.
*= significant for p < 0.01.

A further data set deals with S. flexneri. As to the kind of experiment: Activity on S. flexneri infection in mice. The data set is classed as in vivo. Particulars: infection 3 × LD50 i.p., controls 100. The method, then:
as §1, §2, §3, §4

A further data set deals with P. aeruginosa. As to the kind of experiment: Activity on P. aeruginosa infection in immunosuppressed mice. The data set is classed as in vivo. As to conditions: cyclophosphamide immunosuppressed; for % mortality 1 × LD50: P. aeruginosa 1 × LD50 i.v., controls 80; for % mortality 2 × LD50: P. aeruginosa 2 × LD50 i.v., controls 90. On the procedure: as §1
Activity of FCE 24578 on P. aeruginosa infection
in immunosuppressed mice
Cyclophosphamide (200 mg/kg) was administered i.p. on the fourth day
The treatments with FCE 24578 or vehicle were performed on -3, -2, -1 and
0 day before the infection (2 × LD50 and 1 × LD50)

Data set [1] in a line: approximate acute toxicity (LD50) in the mouse, per os. As to conditions: in vivo, po, single administration of increasing doses, measured on the seventh day. The method, then: For example, the approximate acute toxicity (LD50) in the mouse of the compounds 2-cyano-3-(1,4-dihydro-1-phenyl-[1]-benzopyrano[4,3-c]pyrazol-3-yl)-3-oxo- N-phenyl-propanamide, and 2-cyano-3-(1,4-dihydro-1-phenyl-[1]-benzothiopyrano[4,3-c]pyrazol-3-yl)-3- oxo-N-phenyl-propanamide, determined per os with single administration of increasing doses and measured on the seventh day after the day of treatment, is higher than 800 mg/kg. Analogous toxicity data have been found for the other compounds of the invention.

The next data set has as its system L. monocytogenes. As to the kind of experiment: Activity on L. monocytogenes infection in mice. The data set is classed as in vivo. As to conditions: L. monocytogenes 1 × LD50 i.v., controls 75. The method, then: as §1
Activity of FCE 24578 on L. monocytogenes infection
Treatments with FCE 2457B or vehicle were performed on -3, -2, -1 and 0
day before the infection (1 × LD50) given i.v.

Regarding `N#CC(C(=O)Nc1ccccc1)C(=O)c1nn(-c2ccccc2)c2c1CSc1ccccc1-2` (centres unmarked) [FCE 24578, 2-cyano-3-(1,4-dihydro-1-phenyl-[1]-benzothiopyrano[4,3-c]pyrazol-3-yl)-3-oxo-N-phenyl-propanamide], the “MST (Mean Survival Time)” value is listed as 4 days with D. pneumoniae (10 mg/kg i.p. on -3, -2, -1 and 0 day before infection, controls 3.1); 5.7 days with D. pneumoniae (50 mg/kg i.p. on -3, -2, -1 and 0 day before infection, controls 3.1, * = significant for p < 0.01). The “% mortality” value is given as 40% in the data set with S. flexneri (10 mg/kg i.p. on -3, -2, -1 and 0 day before infection); 10% with S. flexneri (50 mg/kg i.p. on -3, -2, -1 and 0 day before infection). In addition, the “% mortality 1 × LD50” value in the data set with P. aeruginosa (10 mg/kg i.p.) is listed as 0%; with P. aeruginosa (50 mg/kg i.p.), 0%; with L. monocytogenes (10 mg/kg i.p.), 12.5%; in the data set with L. monocytogenes (50 mg/kg i.p.), 0%; in the data set with L. monocytogenes (50 mg/kg p.o.), 37.5%; in the data set with L. monocytogenes (250 mg/kg p.o.) it was 25%. Also, the “% mortality 2 × LD50” value with P. aeruginosa (10 mg/kg i.p.) and in the data set on P. aeruginosa (50 mg/kg i.p.) was 0% each time. Besides, the LD50 at 168 h in data set [1] is above 800 mg/kg.

Compound `N#CC(C(=O)Nc1ccccc1)C(=O)c1nn(-c2ccccc2)c2c1COc1ccccc1-2` (centres unmarked) [FCE 25158, 2-cyano-3-(1,4-dihydro-1-phenyl-[1]-benzopyrano[4,3-c]pyrazol-3-yl)-3-oxo-N-phenyl-propanamide] had an LD50 at 168 h in data set [1] above 800 mg/kg.
